Drawing on patent publication US20240270741A1 (Cogent Biosciences, Inc., priority 2023, published 2024), this text covers IC50 for 30 compounds.

Counter-ions that a name gives are not always drawn.

The target in the first test is FGFR2 (Homo sapiens, UniProt P21802). In words: FGFR wild type enzyme assay (HTRF KinEASE-TK), FGFR2. The following applies: Enz FGFR2 (nM). (Time-resolved FRET reads energy transfer from a long-lived donor to a nearby acceptor.)
Sequence of FGFR2 (P21802 399-821 limits assumed): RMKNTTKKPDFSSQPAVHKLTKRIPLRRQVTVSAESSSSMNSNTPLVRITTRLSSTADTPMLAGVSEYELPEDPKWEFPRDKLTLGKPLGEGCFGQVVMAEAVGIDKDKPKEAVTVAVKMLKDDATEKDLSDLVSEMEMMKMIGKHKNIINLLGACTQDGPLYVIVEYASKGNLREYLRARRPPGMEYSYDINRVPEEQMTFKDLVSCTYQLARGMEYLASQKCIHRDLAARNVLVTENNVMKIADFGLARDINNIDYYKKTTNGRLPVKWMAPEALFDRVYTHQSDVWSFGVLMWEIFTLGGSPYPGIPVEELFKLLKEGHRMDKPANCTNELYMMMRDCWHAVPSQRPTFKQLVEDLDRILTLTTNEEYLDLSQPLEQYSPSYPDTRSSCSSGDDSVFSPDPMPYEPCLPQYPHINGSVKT
With `Cc1cccnc1Sc1cc(-c2cnn(C3CCNCC3)c2)cn2ncc(C#N)c12` [Example 65, 4-((3-methylpyridin-2-yl)thio)-6-(1-(piperidin-4-yl)-1H-pyrazol-4-yl)pyrazolo[1,5-a]pyridine-3-carbonitrile, HCl], the IC50 (as a rule, the midpoint of a concentration-inhibition curve) worked out at 4 nM.
Same read-out and setting: then `Cc1cc(Sc2cc(-c3cnn(C4CCNCC4)c3C)cn3ncc(C#N)c23)c(F)cn1` [Example 116, -[(5-fluoro-2-methyl-4-pyridyl)sulfanyl]-6-[5-methyl-1-(4-piperidyl)pyrazol-4-yl]pyrazolo[1,5-a]pyridine-3-carbonitrile], with 45 nM; and `Cc1c(-c2cc(Sc3ncccc3F)c3c(C#N)cnn3c2)cnn1C1CCN(C)CC1` [Example 107, 4-[(3-fluoro-2-pyridyl)sulfanyl]-6-[5-methyl-1-(1-methyl-4-piperidyl)pyrazol-4-yl]pyrazolo[1,5-a]pyridine3-carbonitrile], with 1 nM; and `Cc1c(-c2cc(Sc3ccccn3)c3c(C#N)cnn3c2)cnn1C1CCN(C(=O)CO)CC1` [Example 98, 6-(1-(1-(2-hydroxyacetyl)piperidin-4-yl)-5-methyl-1H-pyrazol-4-yl)-4-(pyridin-2-ylthio)pyrazolo[1,5-a]pyridine-3-carbonitrile], with 7 nM.

Staying with this test, now noted: Enz FGFR2 (nM), FGFR2 wild type enzyme.
`Cc1c(-c2cc(Sc3ccccc3C#N)c3c(C#N)cnn3c2)cnn1CC1CCNCC1` [Example 200, 4-((2-cyanophenyl)thio)-6-(5-methyl-1-(piperidin-4-ylmethyl)-1H-pyrazol-4-yl)pyrazolo[1,5-a]pyridine-3-carbonitrile] displayed an IC50 of 1 nM.
Still for that read-out and setting: as for `CC(=O)N1C[C@H]2C[C@@H](n3ncc(-c4cc(Sc5ncccc5F)c5c(C#N)cnn5c4)c3C)C[C@H]2C1` [Example 259, 6-(1-((3aR,5r,6aS)-2-acetyloctahydrocyclopenta [c]pyrrol-5-yl)-5-methyl-1H-pyrazol-4-yl)-4-((3-fluoropyridin-2-yl)thio)pyrazolo[1,5-a]pyridine-3-carbonitrile], the figure is 1.5 nM; as for `Cc1c(-c2cc(Sc3ncccc3F)c3c(C#N)cnn3c2)cnn1[C@H]1CC[C@@H](CO)CC1` [Example 281, 4-((3-fluoropyridin-2-yl)thio)-6-(1-((1s,4s)-4-(hydroxymethyl)cyclohex-yl)-5-methyl-1H-pyrazol-4-yl)pyrazolo[1,5-a]pyridine-3-carbonitril], 2 nM; as for `CN(C)[C@H]1CC[C@@H](n2cc(-c3cc(Sc4ccccc4C#N)c4c(C#N)cnn4c3)cn2)CC1` [Example 298, 4-((2-cyanophenyl)thio)-6-(1-((1s,4s)-4-(dimethylamino)cyclohex-yl)-1H-pyrazol-4-yl)pyrazolo[1,5-a]pyridine-3-carbonitrile], 0.5 nM.
On the same count and under the same terms, then `Cc1c(-c2cc(Sc3ncccc3F)c3c(C#N)cnn3c2)cnn1C1CCN(C[C@@H](C)O)CC1` [Example 143, (R)-4-((3-fluoropyridin-2-yl)thio)-6-(1-(1-(2-hydroxypropyl)piperidin-4-yl)-5-methyl-1H-pyrazol-4-yl)pyrazolo[1,5-a]pyridine-3-carbonitrile], with 2 nM; and `CC(=O)N1CCC[C@H](Cn2ncc(-c3cc(Sc4ccccc4C#N)c4c(C#N)cnn4c3)c2C)C1` [Example 202, (S)-6-(1-((1-acetylpiperidin-3-yl)methyl)-5-methyl-1H-pyrazol-4-yl)-4-((2-cyanophenyl)thio)pyrazolo [1,5-a]pyridine-3-carbonitrile], with 2 nM; and `Cc1c(-c2cc(Sc3ncccc3F)c3c(C#N)cnn3c2)cnn1[C@@H](C)C1CCNCC1` [Example 161, 4-[(3-fluoro-2-pyridyl)sulfanyl]-6-[5-methyl-1-[(1S)-1-(4-piperidyl)ethyl]pyrazol-4-yl]pyrazolo[1,5-a]pyridine-3-carbonitrile], with 2 nM.
In turn, `CN[C@]1(C)CC[C@H](n2ncc(-c3cc(Sc4ccc(F)cn4)c4c(C#N)cnn4c3)c2C)CC1` [Example 292, 4-((5-fluoropyridin-2-yl)thio)-6-(5-methyl-1-((1s,4s)-4-methyl-4-(methylamino)cyclohexyl)-1H-pyrazol-4-yl)pyrazolo[1,5-a]pyridine-3-carbonitrile] displayed an IC50 of 3 nM.
In the case of `CC(=O)N[C@H]1CC[C@@H](n2cc(-c3cc(Sc4ccccn4)c4c(C#N)cnn4c3)cn2)CC1` [Example 314, N-((1s,4s)-4-(4-(3-cyano-4-(pyridin-2-ylthio)pyrazolo[1,5-a]pyridin-6-yl)-1H-pyrazol-1-yl)cyclohexyl)acetamide], the IC50 was found to be 2 nM.
The same measure, in the same setting: as for `Cc1c(-c2cc(Sc3ccc(F)cc3C#N)c3c(C#N)cnn3c2)cnn1[C@H]1CC[C@H](O)CC1` [Example 275, 4-(2-cyano-4-fluoro-phenyl)sulfanyl-6-[1-(4-hydroxycyclohexyl)-5-methyl-pyrazol-4-yl]pyrazolo[1,5-a]pyridine-3-carbonitrile], the figure is 1 nM.

The test is the same for the next values; noted with them: Enz FGFR2 (nM), FGFR2 wild type enzyme assay.
Compound `Cc1c(-c2cc(Sc3ccc(F)cc3C#N)c3c(C#N)cnn3c2)cnn1C1CCN(C(=O)[C@H](C)O)CC1` [Example 360, (S)-4-((2-cyano-4-fluorophenyl)thio)-6-(1-(1-(2-hydroxypropanoyl)piperidin-4-yl)-5-methyl-1H-pyrazol-4-yl)pyrazolo[1,5-a]pyridine-3-carbonitrile] returned an IC50 of 2 nM.
Same read-out and setting: as for `N#Cc1cc(F)ccc1Sc1cc(-c2ccc(N3CCC(O)CC3)nc2)cn2ncc(C#N)c12` [Example 586, 4-((2-cyano-4-fluorophenyl)thio)-6-(6-(4-hydroxypiperidin-1-yl)pyridin-3-yl)pyrazolo[1,5-a]pyridine-3-carbonitrile], the figure is 1 nM; as for `CC(=O)N1CCC(n2cc(-c3cc(Sc4ncccc4F)c4c(C#N)cnn4c3)cn2)CC1` [Example 428, 6-(1-(1-acetylpiperidin-4-yl)-1H-pyrazol-4-yl)-4-((3-fluoropyridin-2-yl)thio)pyrazolo[1,5-a]pyridine-3-carbonitrile], 1 nM; as for `CN1CC[C@H](n2cc(-c3cc(Sc4ccccc4C#N)c4c(C#N)cnn4c3)cn2)CC1=O` [Example 619, (S)-4-((2-cyanophenyl)thio)-6-(1-(1-methyl-2-oxopiperidin-4-yl)-1H-pyrazol-4-yl)pyrazolo[1,5-a]pyridine-3-carbonitrile], 2 nM.
Regarding `N#Cc1ccccc1Sc1cc(-c2cn[nH]c2)cn2ncc(C#N)c12` [Example 569, 4-((2-cyanophenyl)thio)-6-(1H-pyrazol-4-yl)pyrazolo[1,5-a]pyridine-3-carbonitrile], half-maximal inhibition (IC50) required 2 nM.
Still for that read-out and setting: as for `COC(=O)N1CC[C@H](n2cc(-c3cc(Sc4ncccc4F)c4c(C#N)cnn4c3)cn2)C1` [Example 480, methyl (S)-3-(4-(3-cyano-4-((3-fluoropyridin-2-yl)thio)pyrazolo[1,5-a]pyridin-6-yl)-1H-pyrazol-1-yl)pyrrolidine-1-carboxylate], the figure is 1 nM; as for `C[C@H](O)C(=O)N1CC[C@@H](n2cc(-c3cc(Sc4ccccc4C#N)c4c(C#N)cnn4c3)cn2)C1` [Example 606, 4-((2-cyanophenyl)thio)-6-(1-((R)-1-((S)-2-hydroxypropanoyl)pyrrolidin-3-yl)-1H-pyrazol-4-y)pyrazolo[1,5-a]pyridine-3-carbonitrile], 0.5 nM.
In turn, `CO[C@@H](C)C(=O)N1CCC(n2cc(-c3cc(Sc4ccccc4C#N)c4c(C#N)cnn4c3)cn2)CC1` [Example 564, (S)-4-((2-cyanophenyl)thio)-6-(1-(1-(2-methoxypropanoyl)piperidin-4-yl)-1H-pyrazol-4-yl)pyrazolo[1,5-a]pyridine-3-carbonitrile] registered an IC50 of 0.5 nM.
Compound `N#Cc1cnn2cc(-c3cnn(CCCO)c3)cc(Sc3ncccc3F)c12` [Example 521, 4-((3-fluoropyridin-2-yl)thio)-6-(1-(3-hydroxypropyl)-1H-pyrazol-4-yl)pyrazolo[1,5-a]pyridine-3-carbonitrile] showed an IC50 of 2 nM.
On the same count and under the same terms, as for `CC(=O)N1CCN(c2nnc(-c3cc(Sc4ccccc4C#N)c4c(C#N)cnn4c3)s2)CC1` [Example 600, 6-(5-(4-acetylpiperazin-1-y)-1,3,4-thiadiazol-2-yl)-4-((2-cyanophenyl)thio)pyrazolo [1,5-a]pyridine-3-carbonitrile], the figure is 6 nM; as for `CN(C)c1ccc(-c2cc(Sc3ccc(F)cc3C#N)c3c(C#N)cnn3c2)cn1` [Example 612, 4-((2-cyano-4-fluorophenyl)thio)-6-(6-(dimethylamino)pyridin-3-yl)pyrazolo[1,5-a]pyridine-3-carbonitrile], 2 nM.
The same measure, in the same setting: then `CN1CCC(n2cc(-c3cc(Sc4ncccc4F)c4c(C#N)cnn4c3)cn2)CC1=O` (stereo not drawn) [Example 506, 4-((3-fluoropyridin-2-yl)thio)-6-(1-(1-methyl-2-oxopiperidin-4-yl)-1H-pyrazol-4-yl)pyrazolo[1,5-a]pyridine-3-carbonitrile], with 1 nM.
Still for that read-out and setting: then `N#Cc1ccccc1Sc1cc(-c2cnn(CCC(=O)N3CCNCC3)c2)cn2ncc(C#N)c12` [Example 675, 4-((2-cyanophenyl)thio)-6-(1-(3-oxo-3-(piperazin-1-yl)propyl)-1H-pyrazol-4-yl)pyrazolo[1,5-a]pyridine-3-carbonitrile], with 0.6 nM; and `CC(=O)N1CCC[C@H](n2cc(-c3cc(Sc4ccc(F)cc4C#N)c4c(C#N)cnn4c3)c(C)n2)C1` [Example 425, (S)-6-(1-(1-acetylpiperidin-3-yl)-3-methyl-1H-pyrazol-4-yl)-4-((2-cyano-4-fluorophenyl)thio)pyrazolo [1,5-a]pyridine-3-carbonitrile], with 6 nM; and `COC(=O)N1CCC(n2cc(-c3cc(Sc4ncccc4F)c4c(C#N)cnn4c3)cn2)CC1` [Example 478, methyl 4-(4-(3-cyano-4-((3-fluoropyridin-2-yl)thio)pyrazolo[1,5-a]pyridin-6-yl)-1H-pyrazol-1-yl)piperidine-1-carboxylate], with 1 nM.
Consider `Cc1c(-c2cc(Sc3ccc(F)cc3C#N)c3c(C#N)cnn3c2)cnn1[C@H]1CC[C@H](OC(=O)[C@H](C)N)CC1` [Example 634, (1r,4S)-4-(4-(3-cyano-4-((2-cyano-4 fluorophenyl)thio)pyrazolo [1,5-a]pyridin-6-yl)-5-methyl-1H-pyrazol-1-yl)cyclohexyl L-alaninate], for which the IC50 is 1 nM.
